According to ChEMBL document CHEMBL1201862, “PubChem BioAssay data set” (2004):
Active and inactive are the calls of the source.

Columns and labels:
Estrogen receptor = molecular target: T1, Estrogen receptor (Homo sapiens, UniProt P03372);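 also: potency for inhibiting coactivator peptide recruitment to the receptor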
T1 sequence (P03372 whole entry): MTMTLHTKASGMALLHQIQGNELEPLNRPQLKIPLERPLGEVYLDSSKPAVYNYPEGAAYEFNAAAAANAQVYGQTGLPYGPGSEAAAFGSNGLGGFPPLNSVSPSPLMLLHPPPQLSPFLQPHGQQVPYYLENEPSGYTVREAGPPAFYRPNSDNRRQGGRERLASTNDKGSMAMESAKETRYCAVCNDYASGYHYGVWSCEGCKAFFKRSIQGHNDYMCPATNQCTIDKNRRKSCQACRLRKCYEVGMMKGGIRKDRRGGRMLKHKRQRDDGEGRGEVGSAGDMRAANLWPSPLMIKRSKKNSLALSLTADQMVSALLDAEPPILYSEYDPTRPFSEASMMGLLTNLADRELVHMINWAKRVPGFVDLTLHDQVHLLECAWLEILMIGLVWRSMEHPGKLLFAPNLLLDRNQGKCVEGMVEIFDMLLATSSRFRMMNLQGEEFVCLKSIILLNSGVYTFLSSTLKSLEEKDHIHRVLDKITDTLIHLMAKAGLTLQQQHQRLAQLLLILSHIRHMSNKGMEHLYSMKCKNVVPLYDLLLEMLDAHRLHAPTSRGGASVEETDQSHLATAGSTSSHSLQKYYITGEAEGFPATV

Estrogen receptor beta [1] = molecular target: T2, Estrogen receptor beta (Homo sapiens, UniProt Q92731); test: ERβ–SRC-3 coactivator interaction inhibitors, confirmation, orthogonal assay, biochemical, ELISA, streptavidin-HRP readout (AID 1060)
T2 sequence (Q92731 whole entry): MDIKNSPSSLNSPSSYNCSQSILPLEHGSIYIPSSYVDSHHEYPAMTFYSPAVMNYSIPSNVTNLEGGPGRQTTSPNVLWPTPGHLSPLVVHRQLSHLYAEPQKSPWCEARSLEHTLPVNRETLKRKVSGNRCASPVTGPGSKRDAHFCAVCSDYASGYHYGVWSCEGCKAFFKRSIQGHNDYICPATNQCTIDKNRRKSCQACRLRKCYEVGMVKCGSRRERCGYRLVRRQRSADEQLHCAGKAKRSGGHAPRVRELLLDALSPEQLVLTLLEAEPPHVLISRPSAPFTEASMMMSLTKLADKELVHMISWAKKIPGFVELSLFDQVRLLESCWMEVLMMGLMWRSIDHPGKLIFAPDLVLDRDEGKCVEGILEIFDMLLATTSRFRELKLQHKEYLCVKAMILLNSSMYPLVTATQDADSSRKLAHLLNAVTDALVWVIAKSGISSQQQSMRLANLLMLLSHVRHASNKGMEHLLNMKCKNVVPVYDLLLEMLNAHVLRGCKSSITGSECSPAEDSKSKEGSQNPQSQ

Estrogen receptor beta [2] = molecular target: T2, Estrogen receptor beta
[3] = molecular target: T3, Eukaryotic translation initiation factor 2-alpha kinase 3 (Homo sapiens, UniProt Q9NZJ5); test: Counterscreen assay for PERK inhibitors: Dose response cell-based high throughput screening assay to measure inhibition of PERK at 6 hours. [Related pubchem assays: 1522, 1416 ]; format: functional
T3 sequence (Q9NZJ5 whole entry): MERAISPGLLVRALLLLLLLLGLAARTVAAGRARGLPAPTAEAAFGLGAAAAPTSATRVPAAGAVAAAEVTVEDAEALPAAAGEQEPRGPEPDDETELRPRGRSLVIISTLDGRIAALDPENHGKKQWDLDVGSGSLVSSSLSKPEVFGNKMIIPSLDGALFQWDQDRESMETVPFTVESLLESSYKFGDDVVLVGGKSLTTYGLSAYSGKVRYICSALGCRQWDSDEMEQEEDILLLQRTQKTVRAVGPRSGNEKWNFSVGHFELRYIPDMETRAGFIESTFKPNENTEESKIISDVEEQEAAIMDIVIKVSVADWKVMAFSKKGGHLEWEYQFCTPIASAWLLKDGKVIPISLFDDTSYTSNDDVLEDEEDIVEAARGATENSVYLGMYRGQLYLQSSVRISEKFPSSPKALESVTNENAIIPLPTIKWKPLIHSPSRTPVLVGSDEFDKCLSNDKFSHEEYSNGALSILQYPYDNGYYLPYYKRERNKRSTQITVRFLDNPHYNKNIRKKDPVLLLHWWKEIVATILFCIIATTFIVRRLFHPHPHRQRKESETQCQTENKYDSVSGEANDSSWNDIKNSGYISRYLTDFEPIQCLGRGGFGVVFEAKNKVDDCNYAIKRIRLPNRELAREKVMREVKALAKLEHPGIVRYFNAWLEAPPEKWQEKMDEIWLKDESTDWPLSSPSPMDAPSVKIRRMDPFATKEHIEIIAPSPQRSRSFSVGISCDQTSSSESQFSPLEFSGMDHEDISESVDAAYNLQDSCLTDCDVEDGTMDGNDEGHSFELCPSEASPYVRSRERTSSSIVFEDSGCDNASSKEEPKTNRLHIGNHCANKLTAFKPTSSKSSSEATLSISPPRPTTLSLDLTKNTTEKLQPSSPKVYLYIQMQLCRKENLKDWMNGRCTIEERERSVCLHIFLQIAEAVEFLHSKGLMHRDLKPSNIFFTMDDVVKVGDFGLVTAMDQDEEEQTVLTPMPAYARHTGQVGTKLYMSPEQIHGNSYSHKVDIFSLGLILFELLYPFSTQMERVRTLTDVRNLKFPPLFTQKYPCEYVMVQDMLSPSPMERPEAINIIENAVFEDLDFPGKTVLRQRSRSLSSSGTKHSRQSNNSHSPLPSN

[4] = molecular target: T3, Eukaryotic translation initiation factor 2-alpha kinase 3; test: Dose response cell-based high-throughput screening assay to measure PERK inhibition. [Related pubchem assays: 1416 ]; format: functional
[5] = polyadenylation inhibitors in yeast reporter, dose response, luminescence, S. cerevisiae SKY197-pL101 (AID 2525); format: functional, cell-based
[6] = Luminescence Cell-Based Dose Confirmation HTS to Identify Inhibitors of Polyadenylation.; format: functional
[7] = molecular target: T4, High affinity choline transporter 1 (Homo sapiens, UniProt Q9GZV3); test: CHT inhibitors, dose response, cell-based, 10-point CRC, membrane potential dye (AID 588401); format: functional;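 also: membrane potential dye fluorescence of choline-evoked depolarization via CHT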
T4 sequence (Q9GZV3 whole entry): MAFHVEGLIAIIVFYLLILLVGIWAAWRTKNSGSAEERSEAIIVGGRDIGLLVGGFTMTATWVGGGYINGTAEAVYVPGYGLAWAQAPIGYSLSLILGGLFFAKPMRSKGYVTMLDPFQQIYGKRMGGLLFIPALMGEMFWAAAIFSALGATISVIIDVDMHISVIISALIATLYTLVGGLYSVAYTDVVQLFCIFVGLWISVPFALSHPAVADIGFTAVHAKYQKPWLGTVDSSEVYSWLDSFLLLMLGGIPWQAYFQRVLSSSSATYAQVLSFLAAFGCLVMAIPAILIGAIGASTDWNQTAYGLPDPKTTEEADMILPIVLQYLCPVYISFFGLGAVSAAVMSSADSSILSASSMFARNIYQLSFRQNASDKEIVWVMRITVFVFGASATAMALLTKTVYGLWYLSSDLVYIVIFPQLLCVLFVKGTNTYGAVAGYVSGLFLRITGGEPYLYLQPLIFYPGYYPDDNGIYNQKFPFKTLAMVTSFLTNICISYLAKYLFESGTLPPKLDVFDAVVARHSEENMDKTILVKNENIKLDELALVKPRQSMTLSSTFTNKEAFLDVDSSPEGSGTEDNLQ

[8] = molecular target: T4, High affinity choline transporter 1; test: CHT inhibitors, dose response, cell-based, 5-point CRC, membrane potential dye (AID 504840); format: functional
[9] = molecular target: Transitional endoplasmic reticulum ATPase (Homo sapiens, UniProt P55072, C522A); test: C522A mutant p97 ATPase inhibitors, dose response, counter-screen for p97 inhibitor project, biochemical, luminescence (AID 1544)
Transitional endoplasmic reticulum ATPase (Homo sapiens, UniProt P55072, C522A), sequence (P55072 2-806 C522A limits assumed): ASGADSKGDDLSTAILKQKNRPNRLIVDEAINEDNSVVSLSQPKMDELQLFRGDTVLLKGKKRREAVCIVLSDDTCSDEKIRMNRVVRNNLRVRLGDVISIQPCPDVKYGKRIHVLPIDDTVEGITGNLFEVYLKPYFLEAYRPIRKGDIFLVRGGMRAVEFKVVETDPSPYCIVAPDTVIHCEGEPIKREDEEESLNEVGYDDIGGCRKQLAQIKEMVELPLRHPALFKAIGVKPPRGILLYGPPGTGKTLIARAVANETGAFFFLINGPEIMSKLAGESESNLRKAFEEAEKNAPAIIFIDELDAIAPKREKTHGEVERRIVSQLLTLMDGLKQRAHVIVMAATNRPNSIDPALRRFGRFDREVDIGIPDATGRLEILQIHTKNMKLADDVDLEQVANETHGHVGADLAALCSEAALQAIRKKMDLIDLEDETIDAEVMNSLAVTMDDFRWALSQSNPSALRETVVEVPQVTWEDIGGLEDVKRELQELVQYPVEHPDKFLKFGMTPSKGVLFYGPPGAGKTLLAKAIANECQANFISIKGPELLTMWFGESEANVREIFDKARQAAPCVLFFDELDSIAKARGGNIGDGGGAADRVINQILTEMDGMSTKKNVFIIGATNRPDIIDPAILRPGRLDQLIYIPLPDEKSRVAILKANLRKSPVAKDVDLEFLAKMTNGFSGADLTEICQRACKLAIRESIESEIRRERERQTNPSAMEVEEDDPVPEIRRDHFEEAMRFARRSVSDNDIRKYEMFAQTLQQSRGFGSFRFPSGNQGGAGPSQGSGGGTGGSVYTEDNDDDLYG

[10] = molecular target: Transitional endoplasmic reticulum ATPase (Homo sapiens, UniProt P55072); test: p97 ATPase inhibitors, dose response, biochemical (AID 1534)
Transitional endoplasmic reticulum ATPase (Homo sapiens, UniProt P55072), sequence (P55072 whole entry): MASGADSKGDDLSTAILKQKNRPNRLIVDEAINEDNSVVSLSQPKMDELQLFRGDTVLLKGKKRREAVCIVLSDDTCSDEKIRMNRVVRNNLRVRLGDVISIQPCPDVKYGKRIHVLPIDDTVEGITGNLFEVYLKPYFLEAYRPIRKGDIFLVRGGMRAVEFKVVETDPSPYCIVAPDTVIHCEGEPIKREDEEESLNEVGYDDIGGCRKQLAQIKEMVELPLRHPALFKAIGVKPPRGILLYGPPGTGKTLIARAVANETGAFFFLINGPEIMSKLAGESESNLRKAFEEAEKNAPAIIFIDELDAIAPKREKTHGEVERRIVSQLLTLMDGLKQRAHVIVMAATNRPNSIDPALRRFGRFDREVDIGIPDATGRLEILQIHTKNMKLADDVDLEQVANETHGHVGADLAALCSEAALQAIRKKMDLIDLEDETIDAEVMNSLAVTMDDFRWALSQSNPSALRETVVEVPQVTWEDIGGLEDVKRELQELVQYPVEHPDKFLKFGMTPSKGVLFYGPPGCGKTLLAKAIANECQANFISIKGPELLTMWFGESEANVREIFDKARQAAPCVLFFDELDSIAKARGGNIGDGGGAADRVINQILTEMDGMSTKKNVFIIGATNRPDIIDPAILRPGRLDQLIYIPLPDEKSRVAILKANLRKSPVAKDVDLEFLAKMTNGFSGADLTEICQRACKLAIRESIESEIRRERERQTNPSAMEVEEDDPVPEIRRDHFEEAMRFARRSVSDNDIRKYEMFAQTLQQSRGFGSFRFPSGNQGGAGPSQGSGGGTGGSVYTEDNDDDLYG

[11] = HEp-2 cell cytotoxicity, dose response, cytotoxicity control for RSV inhibitor project, HTS (AID 2410); format: functional; settings: human respiratory syncytial virus
[12] = molecular target: T5, Mannose-6-phosphate isomerase (Homo sapiens, UniProt P34949); test: inhibitors of human PMI, primary screen, biochemical, fluorescence intensity, coupled assay (AID 1209)
T5 sequence (P34949 whole entry): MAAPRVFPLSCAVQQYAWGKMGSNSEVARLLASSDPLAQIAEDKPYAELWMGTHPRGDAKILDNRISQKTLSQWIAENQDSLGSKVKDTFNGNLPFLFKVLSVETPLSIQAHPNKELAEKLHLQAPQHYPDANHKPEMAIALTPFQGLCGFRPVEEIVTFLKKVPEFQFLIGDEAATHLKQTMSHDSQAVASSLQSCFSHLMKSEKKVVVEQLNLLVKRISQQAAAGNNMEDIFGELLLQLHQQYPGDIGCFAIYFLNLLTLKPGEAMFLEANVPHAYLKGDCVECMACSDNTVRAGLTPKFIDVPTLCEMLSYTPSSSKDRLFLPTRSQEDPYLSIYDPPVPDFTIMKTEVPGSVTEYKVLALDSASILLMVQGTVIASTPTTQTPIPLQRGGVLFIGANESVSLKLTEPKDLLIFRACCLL

[13] = molecular target: T5, Mannose-6-phosphate isomerase; test: human PMI inhibitors, high substrate, primary screen, biochemical, fluorescence intensity, high mannose 6-phosphate (AID 1220)
Bcl-2-related protein A1 [14] = molecular target: T6, Bcl-2-related protein A1 (Mus musculus, UniProt Q07440); test: Bfl-1 inhibitors blocking BH3 peptide binding, confirmation, biochemical, TR-FRET, mouse Bfl-1 (AID 621);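 also: TR-FRET binding of GST-Bfl-1 to FITC-labelled Bid peptide via terbium antibody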
T6 sequence (Q07440 whole entry): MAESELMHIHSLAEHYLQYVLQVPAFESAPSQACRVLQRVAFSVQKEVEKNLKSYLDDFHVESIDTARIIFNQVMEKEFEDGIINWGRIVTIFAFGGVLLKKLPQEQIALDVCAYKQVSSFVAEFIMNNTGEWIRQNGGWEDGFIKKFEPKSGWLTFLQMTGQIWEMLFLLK

Bcl-2-related protein A1 [15] = molecular target: T6, Bcl-2-related protein A1; test: Bfl-1 binding inhibitors, SAR follow-up, biochemical, fluorescence polarization (AID 1070)
[16] = molecular target: Glyceraldehyde-3-phosphate dehydrogenase (Homo sapiens, UniProt P04406)
Glyceraldehyde-3-phosphate dehydrogenase, sequence (P04406 whole entry): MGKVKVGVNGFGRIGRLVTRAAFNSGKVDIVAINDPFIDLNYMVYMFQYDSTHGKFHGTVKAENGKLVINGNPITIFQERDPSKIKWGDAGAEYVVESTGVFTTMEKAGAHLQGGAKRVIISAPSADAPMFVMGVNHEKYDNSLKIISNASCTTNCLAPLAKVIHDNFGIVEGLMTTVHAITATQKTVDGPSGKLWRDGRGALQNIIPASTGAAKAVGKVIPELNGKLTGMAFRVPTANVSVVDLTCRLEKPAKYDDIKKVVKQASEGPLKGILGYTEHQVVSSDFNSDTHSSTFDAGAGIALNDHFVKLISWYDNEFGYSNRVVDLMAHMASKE

Bcl-2-related protein A1 [17] = molecular target: T6, Bcl-2-related protein A1; test: Bfl-1 inhibitors, primary screen, biochemical, fluorescence polarization, FITC-Bid, mouse (AID 432)
[18] = cytotoxicity in HPDE-C7 cells, cell-based, fluorescence, HTS (AID 430); format: functional; settings: Homo sapiens
[19] = cytotoxicity in KRAS-transformed pancreatic duct cells, primary screen, cell-based, fluorescence, HTS (AID 431); format: functional; settings: Homo sapiens;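 also: cell line used: HPDE-C7K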
[20] = A Cell Based Secondary Assay To Explore Cytotoxicity of Compounds that Sensitize Mycobacterium Tuberculosis to Beta-Lactam Antibiotics.; format: functional
[21] = molecular target: T7, Rac GTPase-activating protein 1 (Homo sapiens, UniProt Q9H0H5); test: MgcRacGAP GTPase-activating activity inhibitors, confirmation, biochemical, ADP Hunter fluorescence, primary and confirmatory (AID 624330); format: functional
T7 sequence (Q9H0H5 whole entry): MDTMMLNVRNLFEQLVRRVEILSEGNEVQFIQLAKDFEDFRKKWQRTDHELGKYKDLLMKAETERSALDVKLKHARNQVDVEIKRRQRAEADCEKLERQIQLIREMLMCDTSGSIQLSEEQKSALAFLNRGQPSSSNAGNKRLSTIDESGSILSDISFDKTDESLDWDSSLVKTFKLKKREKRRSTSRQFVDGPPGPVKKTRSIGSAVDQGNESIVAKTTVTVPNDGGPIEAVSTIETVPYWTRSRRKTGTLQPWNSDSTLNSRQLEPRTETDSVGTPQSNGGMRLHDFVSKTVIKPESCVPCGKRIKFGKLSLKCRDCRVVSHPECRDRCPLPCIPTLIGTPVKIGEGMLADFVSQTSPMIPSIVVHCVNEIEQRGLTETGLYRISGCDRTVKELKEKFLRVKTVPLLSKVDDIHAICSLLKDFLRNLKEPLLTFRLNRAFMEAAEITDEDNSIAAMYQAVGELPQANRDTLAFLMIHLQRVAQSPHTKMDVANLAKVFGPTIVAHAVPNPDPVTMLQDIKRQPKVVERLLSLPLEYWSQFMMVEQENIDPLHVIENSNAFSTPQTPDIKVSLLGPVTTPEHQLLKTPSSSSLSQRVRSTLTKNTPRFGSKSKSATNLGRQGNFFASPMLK

In the case of `O=C(CSc1nnc(-c2ccc(OC(F)F)cc2)o1)NC(=O)NCc1ccco1`, the IC50 (Estrogen receptor) is reported as 11.6 µM (active), the IC50 (Estrogen receptor beta [1]) is reported as > 109 µM (not active) and the IC50 (Estrogen receptor beta [2]) is reported as 15.9 µM (active).
In the case of `COc1ccc(-c2csc(NC(=O)CSc3nc(C)cs3)n2)cc1`, the EC50 [3] is reported as > 55.7 µM (not active) and the EC50 [4] is reported as > 55.7 µM (not active).
For `Cc1ccc(-c2nn3c(C)nnc3s2)cc1NC(=O)CSc1ccc(Cl)cc1`, the EC50 [5] was 3.08 µM (active) and the EC50 [6] was 24.7 µM (active).
With `CC(=O)c1cc2c(cc1N)OCO2` the EC50 [3] was > 55.7 µM (not active) and the EC50 [4] was > 55.7 µM (not active).
For `CC(=O)Oc1cc2c3c(c1)/C(=C1/SC(=S)NC1=O)C(=O)N3C(C)(C)C=C2C`, the IC50 [7] was 6.48 µM (active), the IC50 [8] was 1.21 µM (active) and the IC50 [9] was > 50 µM (not active). For the same compound, the IC50 [10] was > 50 µM (not active), the IC50 (cells) was 12.5 µM (active) and the CC50 [11] was 14.3 µM (active).
With `Cc1ccc(-n2c(N)c(C(N)=O)sc2=S)c(C)c1` the IC50 [12] was > 50 µM (not active) and the IC50 [13] was > 50 µM (not active).
With `Cc1ccc(Nc2c(-c3ccc(C)o3)nc3ncccn23)cc1` the EC50 [5] was > 500 µM (not active) and the EC50 [6] was 11.6 µM (active).
In the case of `COc1ccc2c3c(cccc13)NN=C2C`, the IC50 (Bcl-2-related protein A1 [14]) is reported as > 100 µM (not active), the IC50 (Bcl-2-related protein A1 [15]) is reported as > 100 µM (not active) and the IC50 [16] is reported as > 100 µM (not active). For the same compound, the IC50 (Bcl-2-related protein A1 [17]) was 5.44 µM (active), the EC50 [18] was 13 µM (active) and the EC50 [19] was 9.74 µM (active).
For `CCN(CC)c1ccc(NC(=O)c2cc(Cl)ccc2OC)cc1`, the CC50 [20] was > 40 µM (active).
With `Cc1cccc(-n2nc([N+](=O)[O-])c(NC3CCN(Cc4ccccc4)CC3)[n+]2[O-])c1` the CC50 [20] was > 40 µM (active).
For `CC(=O)Oc1ccc2c(=O)c(Oc3ccccc3)coc2c1OC(C)=O`, the IC50 [12] was > 50 µM (not active) and the IC50 [21] was 108 µM (active).
